Test results taken from patent publication US9918958B2, “Treatment for hypoxia” (priority 2011, dated 2018).

Experiments:
[1] = animals
[2] = system: sickle cell disease mouse model; conditions: cited from earlier work
[3] = hypoxic challenge test (12% oxygen, SpO2 by pulse oximeter); type: in vivo, human
Method: The hypoxic challenge test was conducted it the following manner: using face masks and air tanks containing 12% oxygen (compared to 21% oxygen in normal air at sea level), subjects inhaled the 12% hypoxic mixture for 5 minutes at a time just prior to starting the dose of study medication (5-HMF or placebo, double-blind) and then again at each of the time intervals 0.75, 2, 4 and 8 hours after the dose. A finger tip oxygen sensing probe connected to a pulse oximeter provided continuous measurement of SpO2 values (percentage of hemoglobin containing at least one oxygen molecule) and the SpO2 values were recorded every 20 seconds during the hypoxic challenge and during a 3-minute recovery period (during which normal air was inspired). The hypoxia challenge was aborted if SpO2 values fell to less than 85%. FIG. 1 illustrates the effect of 5-HMF during a hypoxic challenge. The data compares the fall in mean SpO2 values of placebo and the 2000 mg dose of 5-HMF prior to a hypoxic challenge given at the 2 hour time point post-dose. The mean change in SpO2 levels from start is shown for each one-minute interval of the 5-minute hypoxic challenge. […] It is noteworthy that the difference between placebo and drug becomes greater as the level of hypoxia in the placebo subjects increases. […] Since the level of hypoxic challenge in this initial human study was moderate (no clinical symptoms of hypoxia were present), the impact of 5-HMF should be even greater when the hypoxic challenge is more extreme.
An illustration of the dose-dependent ability of 5-HMF to impact blood oxygenation during a hypoxic challenge is shown in FIG. 2. Because there are appreciable inter-individual differences in the magnitude of the decline of SpO2 in response to a hypoxic challenge, each subject (both placebo and 5-HMF) was tested for the decline in SpO2 at the 5 minute time point for both (i) the challenge given prior to the dose of placebo or 5-HMF and (ii) the challenge given 2 hours after the dose of placebo or 5-HMF. The dotted line in FIG. 2 represents the “baseline” amount of decline occurring during the challenge given prior to dosing placebo or 5-HMF. The results of the decline in SpO2 for each subject at the end the challenge given 2 hours post-dose results were compared to the subject's baseline amount. Thus each subject acted as his/her own control. The blue dots represent individual subject scores and the horizontal black line is the mean SpO2 change relative to the pre-dose hypoxic challenge.

[4] = human, single doses of 300 mg, 1000 mg, 2000 mg and 4000 mg (n=6 per dose)
Method: The study was a double-blind, placebo (n=8) controlled single ascending dose (SAD) trial examining 5-HMF doses of 300 mg, 1000 mg, 2000 mg and 4000 mg (n=6 per dose).

mice = conditions: simulated altitude of 9,500 meters; cited from earlier work

For `O=Cc1ccc(CO)o1` [5-HMF, 5-hydroxymethyl-2-furfural], the “safety window suggested by repeat dose animal toxicology and safety data” value [1] is listed as “wide safety window in humans is likely”, the “P50 of SCD Hb” value [2] is listed as “lower P50 (left shift)” and the “protection against lethal effects of hypoxia” value [2] is listed as “provides in vivo protection against the lethal effects of hypoxia”. The “effect on blood oxygen saturation during hypoxia challenge compared to placebo” value ([3]; 300 mg dose, 2 hours post-dose) was “small”, the “mean change in ending SpO2 levels relative to the pre-dose hypoxic challenge” value ([3]; 1000 mg dose, 2 hours post-dose, 5 minute time point of challenge) was “approximately 2.5 unit” and the “fall in mean SpO2 after one minute of inhalation of hypoxic air” value ([3]; 2000 mg dose, challenge at 2 hour post-dose, 12% oxygen) was 5 units. The “effect on SpO2 during hypoxic challenge relative to placebo” value ([3]; 2000 mg dose, challenge at 2 hour post-dose, from one minute on for the remainder of the 5-minute challenge) was “less severe decrease in SpO2 during the hypoxic challenge”, the “effect on blood oxygen saturation during hypoxia challenge compared to placebo” value ([3]; all dose levels (300-4000 mg), 2 hours post-dose) was “increased the blood oxygen saturation of the test subjects compared to placebo at all dose levels” and the “difference from placebo of the most active dose levels” value ([3]; top three doses (1000, 2000, 4000 mg), p=0.0498) was “statistically significant”. For the same compound, the safety and tolerability [4] was “safe and well tolerated” and the “survival under hypobaric hypoxia” value (mice) was “increase survival of mice”.
